PubChem BioAssay AID1259411 (Chemical Carcinogenesis Research Information System (CCRIS), 2018)
Activity calls are given as the source filed them. The rule behind the calls is not given here.

Tested on: rodent carcinogenicity bioassays, tumor incidence
Experiment: CCRIS carcinogenicity studies
Summary of the method: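 Archive of carcinogenicity, mutagenicity, tumor promotion and tumor inhibition results drawn from journals, NCI reports and other sources, expert-reviewed; covers 1985-2011 and is no longer updated.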

Measured: carcinogen call

Cc1cc(N=Nc2c(O)ccc3ccccc23)c(S(=O)(=O)O)cc1Cl
active: Species: RAT, Strain/Sex: F344/MALE, Route: ORAL, Dose: 0, 1000, 3000 PPM IN DIET FOR 103 WK (STUDY DURATION: 103 WK), Dose: 0, 1000, 3000 PPM IN DIET FOR 103 WK (STUDY DURATION: 103 WK), Tumor Site: Type of Lesion: SPLEEN: SARCOMA, LIVER: NEOPLASTIC NODULE active; positive | Species: RAT, Strain/Sex: F344/MALE, Route: ORAL, Dose: 0, 1000, 3000 PPM IN DIET FOR 103 WK (STUDY DURATION: 104 WK), Dose: 0, 1000, 3000 PPM IN DIET FOR 103 WK (STUDY DURATION: 104 WK), Tumor Site: Type of Lesion: SPLEEN OR PERITONEUM: SARCOMA active; positive
inactive: Species: MOUSE, Strain/Sex: B6C3F1/FEMALE, Route: ORAL, Dose: 0, 1000, 2000 PPM IN DIET FOR 103 WK (STUDY DURATION: 103 WK), Dose: 0, 1000, 2000 PPM IN DIET FOR 103 WK (STUDY DURATION: 103 WK) inactive; negative | Species: MOUSE, Strain/Sex: B6C3F1/MALE, Route: ORAL, Dose: 0, 1000, 2000 PPM IN DIET FOR 103 WK (STUDY DURATION: 103 WK), Dose: 0, 1000, 2000 PPM IN DIET FOR 103 WK (STUDY DURATION: 103 WK) inactive; negative | Species: MOUSE, Strain/Sex: ICR/FEMALE, Route: DERMAL, Dose: 0, 1 MG IN 0.1 ML DISTILLED WATER 2/WK FOR A MEAN TOTAL DOSE OF 134.7 MG (STUDY DURATION: 18 MO) inactive; negative | Species: MOUSE, Strain/Sex: ICR/MALE, Route: DERMAL, Dose: 0, 1 MG IN 0.1 ML DISTILLED WATER 2/WK FOR A MEAN TOTAL DOSE OF 134.7 MG (STUDY DURATION: 18 MO) inactive; negative | Species: RAT, Strain/Sex: F344/FEMALE, Route: ORAL, Dose: 0, 1000, 3000 PPM IN DIET FOR 103 WK (STUDY DURATION: 104 WK), Dose: 0, 1000, 3000 PPM IN DIET FOR 103 WK (STUDY DURATION: 104 WK) inactive; negative
equivocal: Species: RAT, Strain/Sex: F344/FEMALE, Route: ORAL, Dose: 0, 1000, 3000 PPM IN DIET FOR 103 WK (STUDY DURATION: 103 WK), Dose: 0, 1000, 3000 PPM IN DIET FOR 103 WK (STUDY DURATION: 103 WK), Tumor Site: Type of Lesion: LIVER: NEOPLASTIC NODULE

Oc1cc(O)c2c(c1)O[C@H](c1ccc(O)c(O)c1)[C@@H](O)C2
active: Species: RAT, Strain/Sex: F344/FEMALE, Route: ORAL, Dose: 0, 2% IN DIET FOR 104 WK (STUDY DURATION: 104 WK), Tumor Site: Type of Lesion: GLANDULAR STOMACH: ADENOCARCINOMA active; positive | Species: RAT, Strain/Sex: F344/MALE, Route: ORAL, Dose: 0, 2% IN DIET FOR 104 WK (STUDY DURATION: 104 WK), Tumor Site: Type of Lesion: GLANDULAR STOMACH: ADENOCARCINOMA active; positive

CN1C(=O)C[C@@H](C(=O)N[C@@H](Cc2cnc[nH]2)C(=O)N2CCC[C@H]2C(N)=O)NC1=O
inactive: Species: MOUSE, Strain/Sex: CD-1/FEMALE, Route: GAVAGE, Dose: 0, 5, 15, 50 MG/KG 1/D 7 D/WK FOR 104 WK (STUDY DURATION: 104 WK), Dose: 0, 5, 15, 50 MG/KG 1/D 7 D/WK FOR 104 WK (STUDY DURATION: 104 WK) inactive; negative | Species: MOUSE, Strain/Sex: CD-1/MALE, Route: GAVAGE, Dose: 0, 5, 15, 50 MG/KG 1/D 7 D/WK FOR 104 WK (STUDY DURATION: 104 WK), Dose: 0, 5, 15, 50 MG/KG 1/D 7 D/WK FOR 104 WK (STUDY DURATION: 104 WK) inactive; negative | Species: RAT, Strain/Sex: STRAIN-CD/FEMALE, Route: GAVAGE, Dose: 0, 20, 60, 200 MG/KG 1/D 7 D/WK FOR 94 WK (STUDY DURATION: 94 WK), Dose: 0, 20, 60, 200 MG/KG 1/D 7 D/WK FOR 94 WK (STUDY DURATION: 94 WK) inactive; negative | Species: RAT, Strain/Sex: STRAIN-CD/MALE, Route: GAVAGE, Dose: 0, 20, 60, 200 MG/KG 1/D 7 D/WK FOR 90 WK (STUDY DURATION: 90 WK), Dose: 0, 20, 60, 200 MG/KG 1/D 7 D/WK FOR 90 WK (STUDY DURATION: 90 WK) inactive; negative

Nc1cc(Cl)ccc1O
active: Species: Rat, Strain/Sex: F344/DuCrlCrlj / Female, Route: Oral, Dose: 0, 1280, 3200, 8000 ppm in diet for 2 yr study duration, Dose: 0, 1280, 3200, 8000 ppm in diet for 2 yr study duration, Tumor Site: Type of Lesion: Forestomach: squamous cell papilloma/carcinoma active; positive | Species: Rat, Strain/Sex: F344/DuCrlCrlj / Male, Route: Oral, Dose: 0, 1280, 3200, 8000 ppm in diet for 2 yr study duration, Dose: 0, 1280, 3200, 8000 ppm in diet for 2 yr study duration, Tumor Site: Type of Lesion: Forestomach: squamous cell papilloma/carcinoma. Urinary bladder: papilloma/carcinoma active; positive

CN(C)/N=N/c1nc[nH]c1C(N)=O
active: Species: RAT, Strain/Sex: BUFFALO/FEMALE, Route: ORAL, Dose: 0, 500, MG/KG IN DIET FOR 11 WK, Dose: 0, 500, MG/KG IN DIET FOR 11 WK, Tumor Site: Type of Lesion: MAMMARY GLAND: ADENOCARCINOMA, THYMUS GLAND: LYMPHOSARCOMA active; positive | Species: RAT, Strain/Sex: SPRAGUE-DAWLEY/FEMALE, Route: INTRAPERITONEAL, Dose: 0, 100, 250, 400 MG/RAT IN CITRATE-MANNITOL SOLN, Dose: 0, 100, 250, 400 MG/RAT IN CITRATE-MANNITOL SOLN, Tumor Site: Type of Lesion: MAMMARY GLAND: ADENOCARCINOMA active; positive | Species: RAT, Strain/Sex: SPRAGUE-DAWLEY/FEMALE, Route: ORAL, Dose: 346, 574, 740 MG/KG (TOTAL DOSE), Dose: 346, 574, 740 MG/KG (TOTAL DOSE), Tumor Site: Type of Lesion: MAMMARY GLAND: ADENOCARCINOMA, CARCINOMA, ADENOFIBROMA, THYMUS GLAND: LYMPHOSARCOMA, SPLEEN: LYMPHOSARCOMA, BRAIN: EPEND, Tumor Site: Type of Lesion: MAMMARY GLAND: ADENOCARCINOMA, CARCINOMA, ADENOFIBROMA, THYMUS GLAND: LYMPHOSARCOMA, SPLEEN: LYMPHOSARCOMA, BRAIN: EPEND active; positive | Species: RAT, Strain/Sex: SPRAGUE-DAWLEY/MALE, Route: ORAL, Dose: 608, 974 MG/KG (TOTAL DOSE), Tumor Site: Type of Lesion: MAMMARY GLAND: ADENOCARCINOMA, THYMUS GLAND: LYMPHOSARCOMA, SPLEEN: LYMPHOSARCOMA, Tumor Site: Type of Lesion: MAMMARY GLAND: ADENOCARCINOMA, THYMUS GLAND: LYMPHOSARCOMA, SPLEEN: LYMPHOSARCOMA active; positive

COc1cc(OC)nc(NC(=O)NS(=O)(=O)c2cc(NC=O)ccc2C(=O)N(C)C)n1
inactive: Species: Mouse, Strain/Sex: Crl:CD-1(ICR)BR/Female (51/Group), Route: Oral, Dose: 0, 40, 800, 8000 ppm of 94.6% foramsulfuron in diet for 80 wk, study duration 80 wk, Dose: 0, 40, 800, 8000 ppm of 94.6% foramsulfuron in diet for 80 wk, study duration 80 wk inactive; negative | Species: Mouse, Strain/Sex: Crl:CD-1(ICR)BR/Male (51/Group), Route: Oral, Dose: 0, 40, 800, 8000 ppm of 94.6% foramsulfuron in diet for 80 wk, study duration 80 wk, Dose: 0, 40, 800, 8000 ppm of 94.6% foramsulfuron in diet for 80 wk, study duration 80 wk inactive; negative | Species: Rat, Strain/Sex: Sprague Dawley CRL:CD (IGS) BR/Female (50/Group), Route: Oral, Dose: 0, 100, 600, 6000, 20,000 ppm of 94.6% foramsulfuron in diet for 104 wk, study duration 104 wk, Dose: 0, 100, 600, 6000, 20,000 ppm of 94.6% foramsulfuron in diet for 104 wk, study duration 104 wk inactive; negative | Species: Rat, Strain/Sex: Sprague Dawley CRL:CD (IGS) BR/Male (50/Group), Route: Oral, Dose: 0, 100, 600, 6000, 20,000 ppm of 94.6% foramsulfuron in diet for 104 wk, study duration 104 wk, Dose: 0, 100, 600, 6000, 20,000 ppm of 94.6% foramsulfuron in diet for 104 wk, study duration 104 wk inactive; negative

COc1ccc2c3c1O[C@H]1[C@@H](O)C=C[C@H]4[C@@H](C2)N(C)CC[C@@]341
inactive: Species: MOUSE, Strain/Sex: B6C3F1/FEMALE, Route: ORAL, Dose: 0, 750, 1500, 3000 PPM IN DIET FOR UP TO 106 WK (STUDY DURATION: 106 WK), Dose: 0, 750, 1500, 3000 PPM IN DIET FOR UP TO 106 WK (STUDY DURATION: 106 WK) inactive; negative | Species: MOUSE, Strain/Sex: B6C3F1/MALE, Route: ORAL, Dose: 0, 750, 1500, 3000 PPM IN DIET FOR UP TO 106 WK (STUDY DURATION: 106 WK), Dose: 0, 750, 1500, 3000 PPM IN DIET FOR UP TO 106 WK (STUDY DURATION: 106 WK) inactive; negative | Species: RAT, Strain/Sex: F344/FEMALE, Route: ORAL, Dose: 0, 400, 800, 1600 PPM IN DIET FOR UP TO 106 WK (STUDY DURATION: 106 WK), Dose: 0, 400, 800, 1600 PPM IN DIET FOR UP TO 106 WK (STUDY DURATION: 106 WK) inactive; negative | Species: RAT, Strain/Sex: F344/MALE, Route: ORAL, Dose: 0, 400, 800, 1600 PPM IN DIET FOR UP TO 106 WK (STUDY DURATION: 106 WK), Dose: 0, 400, 800, 1600 PPM IN DIET FOR UP TO 106 WK (STUDY DURATION: 106 WK) inactive; negative
